These results are taken from US20240140952A1, “INHIBITORS AND DEGRADERS OF JANUS KINASE 2” (H. LEE MOFFITT CANCER CENTER AND RESEARCH INSTITUTE, INC., priority 2021, published 2024).

Like-named read-outs stand apart in the source and are kept apart here.

For assay [1], the target named is T1, JAK2 KD (Homo sapiens (Human), UniProt O60674). Description: Differential scanning fluorimetry (DSF) binding studies with purified JAK2 KD. On the technique in general: Differential scanning fluorimetry follows unfolding on heating by fluorescence.
T1 sequence (O60674 840-1132): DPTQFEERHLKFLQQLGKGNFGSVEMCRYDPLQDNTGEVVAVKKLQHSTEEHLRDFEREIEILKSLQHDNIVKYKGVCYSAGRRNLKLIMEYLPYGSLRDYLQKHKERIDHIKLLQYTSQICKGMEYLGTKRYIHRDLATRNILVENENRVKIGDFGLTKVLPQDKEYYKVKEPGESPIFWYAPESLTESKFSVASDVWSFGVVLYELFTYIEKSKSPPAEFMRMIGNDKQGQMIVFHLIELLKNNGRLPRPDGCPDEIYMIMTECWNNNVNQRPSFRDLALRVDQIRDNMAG
Text: To assess the suitability of purified JAK2 KD for SAR studies for drug development campaigns, three series of JAK2 inhibitors (FIG. 2A-C) were subjected to binding studies by differential scanning fluorimetry (DSF).
For assay [2], the target named is JAK2 (Homo sapiens (Human), UniProt O60674). Description: Radiometric assay of enzymatic JAK2 activity by Reaction Biology Corp. It counts as biochemical.
JAK2, sequence (O60674 whole entry): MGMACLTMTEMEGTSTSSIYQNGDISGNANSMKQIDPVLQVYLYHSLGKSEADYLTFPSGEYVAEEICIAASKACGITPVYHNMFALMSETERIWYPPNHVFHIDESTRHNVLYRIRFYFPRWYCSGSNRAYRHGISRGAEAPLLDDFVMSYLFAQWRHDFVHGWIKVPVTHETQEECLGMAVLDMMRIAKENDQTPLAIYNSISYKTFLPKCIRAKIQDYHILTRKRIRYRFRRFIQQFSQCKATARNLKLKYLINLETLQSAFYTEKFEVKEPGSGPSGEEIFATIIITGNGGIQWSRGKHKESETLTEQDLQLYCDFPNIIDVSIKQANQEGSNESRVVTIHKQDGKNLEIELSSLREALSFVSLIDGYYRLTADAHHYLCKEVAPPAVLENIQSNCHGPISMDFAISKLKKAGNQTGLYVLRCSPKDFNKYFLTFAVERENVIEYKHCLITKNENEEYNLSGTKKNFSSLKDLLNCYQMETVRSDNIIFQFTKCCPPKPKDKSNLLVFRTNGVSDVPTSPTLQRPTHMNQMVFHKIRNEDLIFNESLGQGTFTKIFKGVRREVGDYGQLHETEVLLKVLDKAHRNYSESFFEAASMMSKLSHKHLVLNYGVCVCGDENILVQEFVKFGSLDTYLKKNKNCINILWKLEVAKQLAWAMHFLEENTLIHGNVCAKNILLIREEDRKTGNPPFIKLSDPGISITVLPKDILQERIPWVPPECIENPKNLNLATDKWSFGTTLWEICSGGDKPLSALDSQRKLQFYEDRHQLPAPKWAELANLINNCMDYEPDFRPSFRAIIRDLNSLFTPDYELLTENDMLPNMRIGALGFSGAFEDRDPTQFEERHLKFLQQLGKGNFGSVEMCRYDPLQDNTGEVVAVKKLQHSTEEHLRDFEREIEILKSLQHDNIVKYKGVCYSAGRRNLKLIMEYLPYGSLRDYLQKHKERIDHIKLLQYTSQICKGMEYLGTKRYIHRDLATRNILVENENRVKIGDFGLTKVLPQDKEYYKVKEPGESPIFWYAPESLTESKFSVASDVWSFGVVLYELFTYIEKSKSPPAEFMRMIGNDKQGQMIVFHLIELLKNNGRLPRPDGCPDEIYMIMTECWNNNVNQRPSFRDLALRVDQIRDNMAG
Assay [3] relates to UKE-1 cells. In words: UKE-1 cell viability assay (CellTiter Blue). Conditions: UKE1, 72 h, read-out: UKE-1 cell growth inhibition IC50.
Experimental: Suspension cells were seeded at 20,000 cells per well. […] Cell viability data were analyzed using GraphPad Prism6.
Assay [4] has as its target SRC (Homo sapiens (Human), UniProt P12931). The note with it: selectivity; cited from earlier work.
The target of assay [5] is T1, JAK2 KD. Description: Transient expression of JAK2 KD in Expi293F cells, immunoblot densitometry. Format: cell-based. On the procedure:
The construct was expressed using a CMV promoter and contained a Hiss N-terminal affinity tag followed by a TEV cleavage site. Expi293F cells (Invitrogen) were grown, maintained, and treated in shaking culture at 37° C. with 8% CO2 in Expi293 medium (Invitrogen). Recombinant JAK2 was expressed in Expi293F cells using Transporter 5 transfection reagent as described by the manufacturer (PolySciences). One hour after adding the plasmid:transfection complex, varying concentrations of JAK2 inhibitor or transcription enhancer were added. The transfection proceeded for 24 hours before harvest.
Previously, JAK2 KD has been predominantly purified from insect cells; but this process takes several weeks to generate and amplify the baculovirus to produce large enough quantities of purified protein.
For orientation: In western blotting, separated proteins are transferred to a membrane and probed.

Where [6] appears, read: read-out: Biochemical inhibition IC50.
[7] abbreviates: radiometric assay, ± SD from two data sets, read-out: Biochemical inhibition IC50.

SRC, sequence (P12931 whole entry, species assumed): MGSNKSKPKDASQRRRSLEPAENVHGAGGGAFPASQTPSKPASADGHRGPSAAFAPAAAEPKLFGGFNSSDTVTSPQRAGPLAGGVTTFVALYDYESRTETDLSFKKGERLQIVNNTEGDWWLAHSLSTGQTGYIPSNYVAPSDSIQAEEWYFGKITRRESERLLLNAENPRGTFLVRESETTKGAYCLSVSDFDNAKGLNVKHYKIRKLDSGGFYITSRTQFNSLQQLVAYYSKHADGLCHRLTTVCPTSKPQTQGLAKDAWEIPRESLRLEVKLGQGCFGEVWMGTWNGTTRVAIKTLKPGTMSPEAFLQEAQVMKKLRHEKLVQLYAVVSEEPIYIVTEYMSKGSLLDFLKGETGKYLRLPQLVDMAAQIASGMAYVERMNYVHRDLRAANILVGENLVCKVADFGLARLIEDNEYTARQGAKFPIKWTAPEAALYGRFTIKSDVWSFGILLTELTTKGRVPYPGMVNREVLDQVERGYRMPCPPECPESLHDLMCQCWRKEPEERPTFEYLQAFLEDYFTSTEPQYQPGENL

As for `N#CCC(C1CCCC1)n1cc(-c2nc(Nc3ccc(C4CCNCC4)cc3)nc3[nH]ccc23)cn1` (racemic) [(rac)-1], in assay [1], the “Binding potential ΔTm” value stood at 11.8 ± 0.05 °C.

Take `N#CC[C@H](C1CCCC1)n1cc(-c2nc(Nc3ccc(C4CCNCC4)cc3)nc3[nH]ccc23)cn1` [(R)-1, (R)-3-Cyclopentyl-3-(4-(2-((4-(piperidin-4-yl)phenyl)amino)-7H-pyrrolo[2,3-d]pyrimidin-4-yl)-1H-pyrazol-1-yl)propanenitrile]: the IC50 in assay [2] is below 0.15 nM; in assay [2] (setting [6]), 0.15 ± 0.03 nM.

Turning to `N#CC[C@@H](C1CCCC1)n1cc(-c2nc(Nc3ccc(C4CCNCC4)cc3)nc3[nH]ccc23)cn1` [(S)-1, (S)-3-Cyclopentyl-3-(4-(2-((4-(piperidin-4-yl)phenyl)amino)-7H-pyrrolo[2,3-d]pyrimidin-4-yl)-1H-pyrazol-1-yl)propanenitrile], the IC50 in assay [2] (setting [6]) stood at 0.099 ± 0.02 nM.

Take `N#CCCn1cc(-c2nc(Nc3ccc(C4CCNCC4)cc3)nc3[nH]ccc23)cn1` [Compound 2, 3-(4-(2-((4-(Piperidin-4-yl)phenyl)amino)-7H-pyrrolo[2,3-d]pyrimidin-4-yl)-1H-pyrazol-1-yl)propanenitrile]: the IC50 in assay [2] (setting [6]) is 0.13 ± 0.048 nM; in assay [3] it was 4500 ± 5900 nM.

With `C=CCCn1cc(-c2nc(Nc3ccc(C4CCNCC4)cc3)nc3[nH]ccc23)cn1` [Compound 3, 4-(1-(But-3-en-1-yl)-1H-pyrazol-4-yl)-N-(4-(piperidin-4-yl)phenyl)-7H-pyrrolo[2,3-d]pyrimidin-2-amine], the figures for the IC50 in assay [2] (setting [7]) and in assay [3] were 0.26 ± 0.04 nM and 620 ± 40 nM, respectively.

Regarding `Cc1cnc(Nc2ccc(C3CCN(C)CC3)c(F)c2)nc1Nc1ccc(F)c(NS(=O)(=O)C(C)(C)C)c1` [Compound 4, N-(2-Fluoro-5-((2-((3-fluoro-4-(1-methylpiperidin-4-yl)phenyl)amino)-5-methylpyrimidin-4-yl)amino)phenyl)-2-methylpropane-2-sulfonamide], the IC50 in assay [2] (setting [7]) stood at 6.5 ± 3.5 nM.

Turning to `Cc1cnc(Nc2cc(F)c(C3CCN(C)CC3)c(F)c2)nc1Nc1ccc(F)c(NS(=O)(=O)C(C)(C)C)c1` [Compound 5, N-(5-((2-((3,5-Difluoro-4-(1-methylpiperidin-4-yl)phenyl)amino)-5-methylpyrimidin-4-yl)amino)-2-fluorophenyl)-2-methylpropane-2-sulfonamide], the IC50 in assay [2] (setting [7]) was determined as 8.2 ± 5.7 nM; in assay [3], 150 ± 10 nM.

For `Cc1cnc(Nc2ccc(C3CCN(C)CC3)c(F)c2)nc1Nc1ccc2c(c1)N(S(=O)(=O)C(C)(C)C)CC2` [Compound 7, N^4-(1-(tert-Butylsulfonyl)indolin-6-yl)-N^2-(3-fluoro-4-(1-methylpiperidin-4-yl)phenyl)-5-methylpyrimidine-2,4-diamine], the IC50 in assay [2] (setting [6]) came to 3.6 ± 1.1 nM; in assay [3], 210 ± 20 nM.

Consider `Cc1cnc(Nc2ccc(OCCN3CCCC3)cc2)nc1Nc1cccc(S(=O)(=O)NC(C)(C)C)c1` [Fedratinib, reference compound], for which the IC50 in assay [3] came out at 660 ± 60 nM.

Consider `N#CC[C@H](C1CCCC1)n1cc(-c2ncnc3[nH]ccc23)cn1` [Ruxolitinib, reference compound], for which the “Inhibitory activity for JAK2 over SRC” value in assay [4] was “three orders of magnitudes higher”.

Regarding `CCCC(=O)O` [butyric acid], the “JAK2 KD expression increase over ruxolitinib alone” value in assay [5] is “four-fold”.

For the compound `CCCC(CCC)C(=O)O` [valproic acid], in assay [5] (HDAC inhibitor during expression alongside ruxolitinib), the “JAK2 KD expression increase over ruxolitinib alone” value is recorded as “four-fold”.

Broadly, the IC50 is the concentration that inhibits the measured activity by half.
